This note sets out measurements from US9388208B2, “Pyrrolo[1,2-f][1,2,4]triazines useful for treating respiratory syncitial virus infections” (Gilead Sciences, Inc., priority 2013, dated 2016).

Like-named read-outs stand apart in the source and are kept apart here. Where only a bound is given, the exact number is not on record here.

Data set [1] addresses T1, RSV ribonucleoprotein (RNP) complexes (Human respiratory syncytial virus A, UniProt P28887).
T1 construct: The supernatant (S3) fraction, containing the enriched RSV RNP complexes, was collected; endogenous in cells; host or cells: HEp-2 cells infected with RSV A2; detergent-extracted crude S3 fraction
The data set is described as follows: RSV RNP assay (inhibition of RSV RNP transcription). Particulars: 90 minute incubation at 30° C., total radiolabeled transcripts. Type of data set: biochemical, RSV A2. How it is done:
RSV ribonucleoprotein (RNP) complexes were prepared from a method modified from Mason at al (1). HEp-2 cells were plated at a density of 7.1×10^4 cells/cm^2 in MEM+10% fetal bovine serum (FBS) and allowed to attach overnight at 37° C. (5% CO2). Following attachment, the cells were infected with RSV A2 (M01=5) in 35 mL MEM+2% FBS. At 20 hours post-infection, the media was replaced with MEM+2% FBS supplemented with 2 μg/mL actinomycin D and returned to 37° C. for one hour. The cells were then washed once with PBS and treated with 35 mL of PBS+250 μg/mL lyso-lecithin for one minute, after which all liquid was aspirated. The cells were harvested by scrapping them into 1.2 mL of buffer A [50 mM TRIS acetate (pH 8.0), 100 mM potassium acetate, 1 mM DTT and 2 μg/mL actinomycin D] and lysed by repeated passage through an 18 gauge needle (10 times). The cell lysate was placed in ice for 10 minutes and then centrifuged at 2400g for 10 minutes at 4° C. The supernatant (S1) was removed and the pellet (P1) was disrupted in 600 uL of Buffer B [10 mM TRIS acetate (pH 8.0), 10 mM potassium acetate and 1.5 mM MgCl2] supplemented with 1% Triton X-100 by repeated passage through an 18 gauge needle (10 times). The resuspended pellet was placed in ice for 10 minutes and then centrifuged at 2400g for 10 minutes at 4° C. The supernatant (S2) was removed and the pellet (P2) was disrupted in 600 uL of Buffer B supplemented with 0.5% deoxycholate and 0.1% Tween 40. The resuspended pellet was placed in ice for 10 minutes and then centrifuged at 2400g for 10 minutes at 4° C. The supernatant (S3) fraction, containing the enriched RSV RNP complexes, was collected and the protein concentration determined by UV absorbance at 280 nm. Aliquoted RSV RNP S3 fractions were stored at −80° C.
Transcription reactions contained 25 μg of crude RSV RNP complexes in 30 μL of reaction buffer [50 mM TRIS-acetate (pH 8.0), 120 mM potassium acetate, 5% glycerol, 4.5 mM MgCl2, 3 mM DTT, 2 mM ethyleneglycol-bis(2-aminoethylether)-tetraacetic acid (EGTA), 50 μg/mL BSA, 2.5 U RNasin (Promega), ATP, GTP, UTP, CTP and 1.5 uCi [α-^32P] NTP (3000 Ci/mmol)]. The radiolabeled nucleotide used in the transcription assay was selected to match the nucleotide analog being evaluated for inhibition of RSV RNP transcription. Cold, competitive NTP was added at a final concentration of one-half its Km (ATP=20 μM, GTP=12.5 μM, UTP=6 μM and CTP=2 μM). The three remaining nucleotides were added at a final concentration of 100 μM.
To determine whether nucleotide analogs inhibited RSV RNP transcription, compounds were added using a 6 step serial dilution in 5-fold increments. Following a 90 minute incubation at 30° C., the RNP reactions were stopped with 350 μL of Qiagen RLT lysis buffer and the RNA was purified using a Qiagen RNeasy 96 kit. Purified RNA was denatured in RNA sample loading buffer (Sigma) at 65° C. for 10 minutes and run on a 1.2% agarose/MOPS gel containing 2M formaldehyde. The agarose gel was dried and exposed to a Storm phosphorimager screen and developed using a Storm phosphorimager (GE Healthcare). The concentration of compound that reduced total radiolabeled transcripts by 50% (IC50) was calculated by non-linear regression analysis of two replicates.

A short description of data set [2]: Cytotoxicity assay in HEp-2 cells. Type of data set: cell-based. Particulars: human, uninfected HEp-2 cells, CellTiter Glo. How it is done:
Cytotoxicity of tested compounds is determined in uninfected HEp-2 cells in parallel with the antiviral activity using the cell viability reagent in a similar fashion as described before for other cell types (Cihlar et al., Antimicrob Agents Chemother. 2008, 52(2):655-65.). The same protocol as for the determination of antiviral activity is used for the measurement of compound cytotoxicity except that the cells are not infected with RSV. Instead, an uninfected cell mixture at the same density is added at 20 ul/well to plates containing prediluted compounds, also at 100 nl/sample. Assay plates are then incubated for 4 days followed by a cell viability test using the same CellTiter Glo reagent addition and measurement of luminescent readouts. Untreated cell and cells treated at 2 uM puromycin (Sigma, St. Louis, Mo.) serve as 100% and 0% cell viability control, respectively. The percent of cell viability is calculated for each tested compound concentration relative to the 0% and 100% controls and the CC50 value is determined by non-linear regression as a compound concentration reducing the cell viability by 50%.
In general terms: In ATP-based viability assays light output follows the ATP content of the culture.

The test system of a further data set is RSV strain A2. The data set is described as follows: Anti-RSV activity, infectious cytopathic cell protection assay in HEp-2 cells. Type of data set: cell-based, Respiratory Syncytial Virus (RSV). Particulars: human respiratory syncytial virus. As to the method: Antiviral activity against RSV is determined using an infectious cytopathic cell protection assay in HEp-2 cells. In this assay, compounds inhibiting viral infection and/or replication produce a cytoprotective effect against the virus-induced cell killing that can be quantified using a cell viability reagent. The techniques used here are novel adaptations of methods described in published literature (Chapman et al., Antimicrob Agents Chemother. 2007, 51(9):3346-53.)
HEp-2 cells are obtained from ATCC (Manassas, VI) and maintained in MEM media supplemented with 10% fetal bovine serum and penicillin/streptomycin. Cells are passaged twice a week and kept at subconfluent stage. Commercial stock of RSV strain A2 (Advanced Biotechnologies, Columbia, Md.) is titered before compound testing to determine the appropriate dilution of the virus stock that generates desirable cytopathic effect in HEp-2 cells.
For antiviral tests, HEp-2 cells are grown in large cell culture flasks to near confluency but not fully so. The compounds to be tested are prediluted in DMSO in 384-well compound dilution plates, either in an 8 or 40 sample per plate standardized dose response format. 3-fold serial dilution increments of each test compound are prepared in the plates and test samples are transferred via acoustic transfer apparatus (Echo, Labcyte) at 100 nl per well into cell culture assay 384-well plates. Each compound dilution is transferred in single or quadruplicate samples into dry assay plates, which are stored until assay is ready to go. The positive and negative controls are laid out in opposite on ends of the plate in vertical blocks (1 column).
Subsequently, an infectious mixture is prepared using an appropriate dilution of virus stock previously determined by titration with cells at a density of 50,000/ml and 20 uL/well is added to test plates w/compounds via automation (uFlow, Biotek). Each plate includes negative and positive controls (16 replicates each) to create 0% and 100% virus inhibition standards, respectively. Following the infection with RSV, testing plates are incubated for 4 days in a 37° C. cell culture incubator. After the incubation, a cell viability reagent, Cell TiterGlo (Promega, Madison, Wis.) is added to the assay plates, which are incubated briefly, and a luminescent readout is measured (Envision, Perkin Elmer) in all the assay plates. The RSV-induced cytopathic effect, percentage inhibition, is determined from the levels of remaining cell viability. These numbers are calculated for each tested concentration relative to the 0% and 100% inhibition controls, and the EC50 value for each compound is determined by non-linear regression as a concentration inhibiting the RSV-induced cytopathic effect by 50%. Various potent anti-RSV tool compounds are used as positive controls for antiviral activity.
For orientation: Cytopathic effects are the visible damage that an infection or toxin causes in cultured cells.

The nature of data set [3]: Cytotoxicity assay in MT-4 cells. The data set is classed as cell-based. The conditions noted are these: human, Cell-Titer Glo. As to the method:
The MT-4 cell line was obtained from the NIH AIDS Research and Reference Reagent Program (Germantown, Md.) and cultured in RPMI-1640 medium (Irvine Scientific, Santa Ana, Calif., Cat #9160) supplemented with 10% FBS, 100 units/mL penicillin, 100 units/mL streptomycin, and 2 mM L-Glutamine. The MT-4 cells were passaged twice per week to maintain cell densities below 0.6×10^6 cells/mL. Complete RPMI-1640 media containing 100× concentrations of 3-fold serially diluted compound, ranging from 26 nM to 530 μM, were stamped in quadruplicate into black 384-well plates. After compound addition, 2×10^3 MT-4 cells were added to each well using a MicroFlo liquid dispenser (BioTek, Winooski, Vt.) and the cells were cultured for 5 days at 37° C. in a 5% CO2 incubator. Following the incubation the cells were allowed to equilibrate to 25° C. and cell viability was determined by adding 25 μL of Cell-Titer Glo viability reagent. The mixture was incubated for 10 minutes at 25° C., and the luminescence signal was quantified on a Victor Luminescence plate reader. The CC50 value is defined as the concentration of compound that reduces cell viability by 50% as determined by the Cell-Titer Glo signal. The data were analyzed using Pipeline Pilot Plate Data Analytics Collection software (Version 7.0, Accelrys, San Diego, Calif.). CC50 values were calculated from a non-linear regression analysis using a 4-parameter sigmoidal dose-response equation: Y=Bottom+(Top−Bottom)/(1+10^[(Log CC50−X)*HillSlope]) where the Top and Bottom were fixed at 100% and 0% cell viability, respectively. CC50 values were calculated as the average±standard deviation of 3 independent experiments.

Setting [4] is: 96 h, HEp-2 cells infected with RSV A2, 4 days, Cell TiterGlo, read-out: EC50.
The mark [5] stands for this setting: HEp-2 anti-RSV activity, read-out: EC50 (HEp-2 anti-RSV activity).

T1 sequence (P28887 whole entry): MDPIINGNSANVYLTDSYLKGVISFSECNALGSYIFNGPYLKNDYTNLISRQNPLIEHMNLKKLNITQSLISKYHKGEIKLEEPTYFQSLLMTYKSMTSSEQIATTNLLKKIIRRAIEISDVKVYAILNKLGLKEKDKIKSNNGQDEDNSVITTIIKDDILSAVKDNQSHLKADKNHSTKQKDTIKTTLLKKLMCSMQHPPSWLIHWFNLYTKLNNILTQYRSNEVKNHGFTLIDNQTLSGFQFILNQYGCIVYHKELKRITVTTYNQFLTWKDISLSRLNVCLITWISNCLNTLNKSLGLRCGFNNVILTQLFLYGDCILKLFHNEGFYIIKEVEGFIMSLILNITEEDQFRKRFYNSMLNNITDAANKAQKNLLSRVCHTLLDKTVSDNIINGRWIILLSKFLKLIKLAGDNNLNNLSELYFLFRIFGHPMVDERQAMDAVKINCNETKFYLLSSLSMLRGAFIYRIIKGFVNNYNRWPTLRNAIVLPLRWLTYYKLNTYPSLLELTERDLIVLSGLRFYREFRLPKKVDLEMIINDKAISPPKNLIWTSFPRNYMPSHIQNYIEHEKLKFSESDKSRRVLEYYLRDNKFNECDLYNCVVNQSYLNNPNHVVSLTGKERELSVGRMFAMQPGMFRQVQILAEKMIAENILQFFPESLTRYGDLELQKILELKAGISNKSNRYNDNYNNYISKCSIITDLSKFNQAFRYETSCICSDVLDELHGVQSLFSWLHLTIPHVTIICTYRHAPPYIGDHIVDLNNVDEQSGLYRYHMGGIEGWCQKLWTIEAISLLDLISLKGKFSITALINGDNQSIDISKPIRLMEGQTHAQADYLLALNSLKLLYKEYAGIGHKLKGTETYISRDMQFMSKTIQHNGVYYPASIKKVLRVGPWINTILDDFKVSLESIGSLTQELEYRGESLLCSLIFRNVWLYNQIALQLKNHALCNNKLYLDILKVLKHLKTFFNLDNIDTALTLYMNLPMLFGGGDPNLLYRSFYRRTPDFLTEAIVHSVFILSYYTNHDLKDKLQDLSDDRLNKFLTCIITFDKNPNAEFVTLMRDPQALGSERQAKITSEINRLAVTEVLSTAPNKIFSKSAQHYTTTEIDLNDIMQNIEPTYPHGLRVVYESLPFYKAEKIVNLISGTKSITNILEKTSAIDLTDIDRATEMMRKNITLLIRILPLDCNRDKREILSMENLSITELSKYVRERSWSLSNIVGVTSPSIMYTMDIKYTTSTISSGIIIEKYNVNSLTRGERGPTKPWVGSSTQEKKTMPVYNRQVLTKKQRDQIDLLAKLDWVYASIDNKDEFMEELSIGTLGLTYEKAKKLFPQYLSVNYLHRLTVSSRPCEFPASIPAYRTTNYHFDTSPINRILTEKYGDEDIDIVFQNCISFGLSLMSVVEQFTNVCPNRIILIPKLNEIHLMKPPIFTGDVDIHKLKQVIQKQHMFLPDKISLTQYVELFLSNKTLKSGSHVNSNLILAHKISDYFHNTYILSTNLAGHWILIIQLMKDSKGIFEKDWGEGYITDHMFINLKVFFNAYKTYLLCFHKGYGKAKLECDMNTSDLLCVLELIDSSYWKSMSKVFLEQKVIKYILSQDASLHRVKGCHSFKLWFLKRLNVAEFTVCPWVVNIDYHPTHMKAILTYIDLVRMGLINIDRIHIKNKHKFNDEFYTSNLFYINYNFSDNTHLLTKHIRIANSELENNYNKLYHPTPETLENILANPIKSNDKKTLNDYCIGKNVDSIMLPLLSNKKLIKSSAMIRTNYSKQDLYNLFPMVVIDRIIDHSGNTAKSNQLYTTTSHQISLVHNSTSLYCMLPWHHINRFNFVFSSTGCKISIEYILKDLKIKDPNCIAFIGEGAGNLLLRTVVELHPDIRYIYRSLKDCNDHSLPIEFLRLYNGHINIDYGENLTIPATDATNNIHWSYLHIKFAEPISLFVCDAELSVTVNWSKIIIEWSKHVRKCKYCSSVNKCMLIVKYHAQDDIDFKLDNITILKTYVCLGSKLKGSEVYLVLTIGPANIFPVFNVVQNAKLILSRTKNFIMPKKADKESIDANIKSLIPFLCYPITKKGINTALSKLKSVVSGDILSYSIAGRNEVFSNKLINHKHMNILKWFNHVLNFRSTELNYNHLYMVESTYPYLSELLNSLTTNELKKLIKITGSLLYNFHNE
T1 sequence (P03421 whole entry, further chain): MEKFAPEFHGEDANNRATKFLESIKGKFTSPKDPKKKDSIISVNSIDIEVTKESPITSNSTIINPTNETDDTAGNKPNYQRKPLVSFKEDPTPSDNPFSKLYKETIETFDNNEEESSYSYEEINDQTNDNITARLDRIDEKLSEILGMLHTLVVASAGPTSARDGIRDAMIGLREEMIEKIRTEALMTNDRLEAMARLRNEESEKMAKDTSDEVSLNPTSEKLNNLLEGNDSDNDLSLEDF

On to `[N-]=[N+]=N[C@]1(COP(=O)(O)OP(=O)(O)OP(=O)(O)O)O[C@@H](c2ccc3c(N)nc(F)nn23)[C@H](F)[C@@H]1O` [Example 29, ((2R,3R,4R,5S)-5-(4-amino-2-fluoropyrrolo[2,1-f][1,2,4]triazin-7-yl)-2-azido-4-fluoro-3-hydroxytetrahydrofuran-2-yl)methyl tetrahydrogen triphosphate], for which half-maximal inhibition in data set [1] (IC50) required 0.08 µM.

Compound `C#C[C@]1(COP(=O)(O)OP(=O)(O)OP(=O)(O)O)O[C@@H](c2ccc3c(N)ncnn23)[C@H](F)[C@@H]1O` [Example 7, ((2R,3R,4R,5S)-5-(4-aminopyrrolo[1,24][1,2,4]triazin-7-yl)-2-ethynyl-4-fluoro-3-hydroxytetrahydrofuran-2-yl)methyl tetrahydrogen triphosphate] returned a half-inhibitory concentration (IC50) in data set [1] of 1 µM.

On to `N#C[C@]1(COP(=O)(O)OP(=O)(O)OP(=O)(O)O)O[C@@H](c2ccc3c(N)ncnn23)[C@H](O)[C@@H]1O` [Example 8, ((2R,3S,4R,5S)-5-(4-aminopyrrolo[1,2-f][1,2,4]triazin-7-yl)-2-cyano-3,4-dihydroxytetrahydrofuran-2-yl)methyl tetrahydrogen triphosphate], for which, in data set [1], the half-maximal inhibitory concentration (IC50) stood at 0.025 µM.

In the case of `C#C[C@]1(CO)O[C@@H](c2ccc3c(N)ncnn23)[C@H](F)[C@@H]1O` [Example 2, (2R,3R,4R,5S)-5-(4-aminopyrrolo[1,2-f][1,2,4]triazin-7-yl)-2-ethynyl-4-fluoro-2-(hydroxymethyl)tetrahydrofuran-3-ol], in data set [2], the CC50 at 4 days is > 100 µM. Further, the EC50 in the data set with RSV strain A2 (setting [4]) is 9.6 µM; in the data set with RSV strain A2 (setting [5]), < 100 µM. In data set [3], the half-maximal cytotoxic concentration (CC50) at 5 days was > 106 µM.

For `N#C[C@]1(CO)O[C@@H](c2cc(F)c3c(N)ncnn23)[C@H](O)[C@@H]1O` [Example 25, (2R,3S,4R,5S)-5-(4-amino-5-fluoropyrrolo[2,1-f][1,2,4]triazin-7-yl)-3,4-dihydroxy-2-(hydroxymethyl)tetrahydrofuran-2-carbonitrile], the CC50 at 4 days in data set [2] is > 100 µM. Moreover, in the data set on RSV strain A2 (setting [4]), the EC50 was determined as 9.2 µM. Further, the CC50 at 5 days in data set [3] is > 93 µM.

As to `N#C[C@]1(CO)O[C@@H](c2ccc3c(N)ncnn23)[C@H](F)[C@@H]1O` [Example 3, (2R,3R,4R,5S)-5-(4-aminopyrrolo[1,24][1,2,4]triazin-7-yl)-4-fluoro-3-hydroxy-2-(hydroxymethyl)tetrahydrofuran-2-carbonitrile], the half-maximal cytotoxic concentration (CC50) at 4 days in data set [2] is > 100 µM. Further, the EC50 in the data set on RSV strain A2 (setting [4]) is 2 µM; in the data set on RSV strain A2 (setting [5]) it was < 100 µM. The CC50 at 5 days in data set [3] was > 106 µM.

In data set [2], `C=C[C@]1(COP(=O)(OCCSC(=O)C(C)(C)C)OCCSC(=O)C(C)(C)C)O[C@@H](c2ccc3c(N)ncnn23)[C@H](F)[C@@H]1O` [Example 15, S,S′-2,2′-((((2R,3R,4R,5S)-5-(4-aminopyrrolo[1,2-f][1,2,4]triazin-7-yl)-4-fluoro-3-hydroxy-2-vinyltetrahydrofuran-2-yl)methoxy)phosphoryl)bis(oxy)bis(ethane-2,1-diyl)bis(2,2-dimethylpropanethioate)] came in with a half-maximal cytotoxic concentration (CC50) at 4 days of 35 µM. The same compound had an EC50 in the data set with RSV strain A2 (HEp-2, 96 h) of 1.6 µM. The same compound registered a cytotoxic concentration (CC50) at 5 days in data set [3] of 7.9 µM.

Regarding `[N-]=[N+]=N[C@]1(CO)O[C@@H](c2ccc3c(N)ncnn23)[C@H](O)[C@@H]1O` [Example 5, (2R,3S,4R,5S)-5-(4-aminopyrrolo[1,2-f][1,2,4]triazin-7-yl)-2-azido-2-(hydroxymethyl)tetrahydrofuran-3,4-diol], the CC50 at 4 days in data set [2] is > 50 µM. Further, the concentration giving a half-maximal response (EC50) in the data set with RSV strain A2 (setting [4]) was 2.1 µM. For the same compound, the half-maximal cytotoxic concentration (CC50) at 5 days in data set [3] was > 53 µM.

A word on the IC50: it is the concentration that gives 50% inhibition. A lower IC50 goes with greater potency in that assay. In general, CC50 refers to the concentration at which the toxic effect on the cells reaches its halfway point. Low values mean greater toxicity to the cells, high ones lower toxicity to the cells. What is called EC50 is the concentration giving half of the maximal effect.
